Legend:
[1] = Spontaneous CO release from suspensions (gas chromatography, TCD); type: physicochemical; settings: suspension in RPMI with 10% FBS, 37° C., dark
Method: CO detection was carried out by Gas Chromatography using a thermal conductivity detector (TCD) for the quantification of CO and CO2. The experiments were done under an initial atmosphere of reconstituted air, free of CO and CO2. […] […] Samples were withdrawn with gas-tight Hamilton syringes after homogenization of the head-space at given time intervals, preferably 2 hours, 4 hours and 6 hours. […] The volumes of CO released are usually in the range between 0.5-3 mL.
As a possible result of the use of suspensions, the number of CO equivalents released in RPMI varied slightly. As an example of the possible variations, the average of eight independent assays done with suspensions of Compound I.1 is given in Table 2.

[2] = CO release in the presence of reactive oxygen species (TBHP, H2O2, KO2); type: physicochemical; settings: 25° C., dark; for Equivalents of CO2 released, H2O2 / Equivalents of CO released, H2O2: H2O2 100:1, water; for Equivalents of CO2 released, TBHP / Equivalents of CO released, TBHP: TBHP 100:1, water
Method: The studies were done using the same method and apparatus described in Example 7 with the following modifications: RPMI/FBS was replaced by double distilled water in the experiments with H2O2 and TBHP and by tetrahydrofuran (THF) for the experiments with KO2; the temperature was kept at 25° C. The concentration of Compound I.1 was approximately 1 mM and the ration of concentrations of H2O2, TBHP and KO2 relative to Compound I.1 was 100:1. The amount of CO2 generated was also measured in the same experiment to ascertain the concurrent oxidation of coordinated CO. TBHP was added from a 70% aqueous solution and H2O2 from a 30% aqueous solution.

rat arthritis model = settings: previously shown, US 2003/0068387; cited from earlier work

## O=[C][Mo]([I])([C]=O)([C]=O)([C]=O)[C]=O [Compound I.6]
[1]; 2 hours
  Equivalents of CO released, RPMI: 0.42 equivalents of CO
[1]; 4 hours
  Equivalents of CO released, RPMI: 1.00 equivalents of CO
[1]; 6 hours
  Equivalents of CO released, RPMI: 1.25 equivalents of CO
[2]; 1 h
  Equivalents of CO2 released, H2O2: 0.14 equivalents
  Equivalents of CO released, H2O2: 1.31 equivalents
  Equivalents of CO2 released, TBHP: 0.00 equivalents
  Equivalents of CO released, TBHP: 0.48 equivalents
[2]; 3 h
  Equivalents of CO2 released, H2O2: 0.44 equivalents
  Equivalents of CO released, H2O2: 3.04 equivalents
  Equivalents of CO2 released, TBHP: 0.24 equivalents
  Equivalents of CO released, TBHP: 1.75 equivalents
[2]; 5 h
  Equivalents of CO2 released, H2O2: 0.51 equivalents
  Equivalents of CO released, H2O2: 3.20 equivalents
  Equivalents of CO2 released, TBHP: 0.55 equivalents
  Equivalents of CO released, TBHP: 3.51 equivalents
[2]; 24 h
  Equivalents of CO2 released, H2O2: 0.35 equivalents
  Equivalents of CO released, H2O2: 1.91 equivalents
  Equivalents of CO2 released, TBHP: 0.99 equivalents
  Equivalents of CO released, TBHP: 4.29 equivalents

## ClCCl [Methylene chloride]
Rat arthritis model
  effects in a rat arthritis model: beneficial effects

## O=[C][Mo]([I])([C]=O)([C]=O)([C]=O)[C]=O [Compound I.18, [NH4](diglyme)3[Mo(CO)5I]]
[1]; 2 hours
  Equivalents of CO released, RPMI: 0.55 equivalents of CO
[1]; 4 hours
  Equivalents of CO released, RPMI: 0.73 equivalents of CO
[1]; 6 hours
  Equivalents of CO released, RPMI: 0.79 equivalents of CO

## O=[C][Mo]([I])([C]=O)([C]=O)([C]=O)[C]=O [Compound I.16, K(diglyme)3 [Mo(CO)5I]]
[1]; 2 hours
  Equivalents of CO released, RPMI: 0.94 equivalents of CO
[1]; 4 hours
  Equivalents of CO released, RPMI: 1.20 equivalents of CO
[1]; 6 hours
  Equivalents of CO released, RPMI: 1.28 equivalents of CO

Reference: patent publication US20070207993A1, “Molybdenum carbonyl complexes for treating rheumatoid arthritis and other inflammatory diseases” (Alfama - Investigacao e Desenvolvimetno De Productos …, priority 2005, published 2007)
